The values that follow come from patent US9303015B2, “Heteroaryl linked quinolinyl modulators of RORγt” (Janssen Pharmaceutica NV, priority 2012, dated 2016).

One test deals with human RORγt LBD (Homo sapiens (Human), UniProt P51449). Nature of the test: RORγt reporter assay (GAL4-RORγt LBD luciferase, HEK293T cells). Type of test: cell-based. Conditions: for inhibition at 6 µM: HEK-293T, read-out: RORγt reporter Assay, % inhibition @ 6 μM, 6 μM, HEK293T cells; for RORγt reporter Assay, % inhibition @ 6 μM: HEK293T cells. An excerpt: A reporter assay was used to test functional activity of RORγt modulatory compounds on transcriptional activation driven by the RORγt LBD. Cells used in the assay were co-transfected with two constructs. The first construct, pBIND-RORγt LBD, contained the wild type human RORγt LBD fused to the DNA binding domain of the GAL4 protein. The second construct, pGL4.31 (Promega Cat no. C935A), contained multiple GAL4 responsive DNA elements upstream of firefly luciferase. […] The mutant construct was called pBIND-RORγt-AF2. […] The pBIND vector contains the GAL4 DNA Binding Domain (GAL4 DBD) and the renilla luciferase gene under control of the SV40 promoter. Renilla luciferase expression serves as a control for transfection efficiency and cell viability.
The reporter assay was performed by transiently transfecting HEK293T cells with 5 μg of pBIND-RORγt LBD or pBIND-RORγt LBD-AF2 and 5 μg pGL4.31 (Promega Cat no. C935A) using Fugene 6 (Invitrogen Cat no. E2691) at a 1:6 ratio of DNA: Fugene 6 in a T-75 flask in which cells were at least 80% confluent. Twenty four hours after bulk transfection, cells were plated into 96-well plates at 50,000 cells/well in phenol-red free DMEM containing 5% Lipid Reduced FCS and Pen/Strep. Six hours after plating, cells were treated with compounds for 24 hours. Media was removed and cells were lysed with 50 μL 1x Glo Lysis Buffer (Promega). Dual Glo Luciferase Reagent (50 μL/well) was then added and firefly luciferase luminescence was read on an Envision after a ten minute incubation. Finally, Stop and Glo reagent (50 μL/well) was added and renilla luciferase luminescence was read on an Envision after a ten minute incubation. To calculate the effect of compounds on RORγt activity, the ratio of firefly to renilla luciferase was determined and plotted against compound concentration. Agonist compounds increase RORγt-driven luciferase expression, and antagonist or inverse agonist compounds decrease luciferase expression.
In general terms: A reporter such as luciferase makes a cellular process visible.

The test system of test [1] is IL-17 production by CD4 T cells. Put plainly: Human Th17 assay. Type of test: cell-based. As to conditions: IL-17 in supernatant after 3 days, human CD4+ T cells under Th17 differentiation. An excerpt: The human Th17 assay tests the effect of RORγt modulatory compounds on IL-17 production by CD4 T cells under conditions which favor Th17 differentiation.
Total CD4^+ T cells were isolated from the peripheral blood mononuclear cells (PBMC) of healthy donors using a CD4^+ T cell isolation kit II, following the manufacturer's instructions (Miltenyi Biotec). Cells were resuspended in a medium of RPMI-1640 supplemented with 10% fetal bovine serum, penicillin, streptomycin, glutamate, and β-mercaptoethanol and were added to 96-well plates at 1.5×10^5 per 100 μL per well. 50 μL of compound at titrated concentrations in DMSO were added into each well at final DMSO concentration at 0.2%. Cells were incubated for 1 hour, then 50 μL of Th17 cell differentiation medium was added to each well. The final concentrations of antibodies and cytokines (R&D Systems) in differentiation medium were: 3×10^6/mL anti-CD3/CD28 beads (prepared using human T cell activation/expansion kit, Miltenyi Biotec), 10 μg/mL anti-IL4, 10 μg/mL anti-IFNγ, 10 ng/mL IL113, 10 ng/mL IL23, 50 ng/mL IL6, 3 ng/mL TGFβ and 20 U/mL IL2. Cells were cultured at 37° C. and 5% CO2 for 3 days. Supernatants were collected and the accumulated IL-17 in culture was measured by using MULTI-SPOT® Cytokine Plate following manufacture's instruction (Meso Scale Discovery). The plate was read using Sector Imager 6000, and IL-17 concentration was extrapolated from the standard curve. The IC50s were determined by GraphPad.

Structures are written as SMILES. Counter-ions that a name gives are not always drawn.

Sequence of human RORγt LBD (P51449 258-518): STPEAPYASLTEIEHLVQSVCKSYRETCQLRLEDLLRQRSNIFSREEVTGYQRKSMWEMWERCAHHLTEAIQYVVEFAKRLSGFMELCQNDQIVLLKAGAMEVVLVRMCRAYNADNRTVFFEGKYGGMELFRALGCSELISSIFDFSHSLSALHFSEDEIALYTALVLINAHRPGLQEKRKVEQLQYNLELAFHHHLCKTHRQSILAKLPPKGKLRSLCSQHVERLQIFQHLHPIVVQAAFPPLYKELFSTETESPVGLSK

As a reminder, the inhibition is the drop in the measured response relative to a control, in per cent. The IC50 is the midpoint of a concentration-inhibition curve. Read a high IC50 as weaker potency. With `CCN(CC)c1nc2ccc(C(O)(c3ccc(C(F)(F)F)nc3)c3cncn3C)cc2c(Cl)c1Oc1ccccc1` (single isomer, unassigned) [Example 6b, (4-Chloro-2-(diethylamino)-3-phenoxyquinolin-6-yl)(1-methyl-1H-imidazol-5-yl)(6-(trifluoromethyl)pyridin-3-yl)methanol], on human RORγt LBD, the inhibition at 6 µM is 93%. This compound came in with an IC50 in test [1] of 0.05 µM.
As for `CCN(CC)c1nc2ccc(C(O)(c3ccc(C(F)(F)F)nc3)c3cncn3C)cc2c(Cl)c1Oc1ccccc1` (single isomer, unassigned) [Example 6c, (4-Chloro-2-(diethylamino)-3-phenoxyquinolin-6-yl)(1-methyl-1H-imidazol-5-yl)(6-(trifluoromethyl)pyridin-3-yl)methanol], the “RORγt reporter Assay, % inhibition @ 6 μM” value on human RORγt LBD is 88%. The same compound showed a concentration for half-maximal inhibition (IC50) in test [1] of 0.21 µM.
For `CCN(CC)c1nc2ccc(C(O)(c3ccc(C(F)(F)F)nc3)c3cncn3C)cc2c(Cl)c1Oc1ccc(F)cc1` (single isomer, unassigned) [Example 9b], in that order: 81% and 0.32 µM.
For `CCN(CC)c1nc2ccc(C(O)(c3ccc(C(F)(F)F)nc3)c3cncn3C)cc2c(Cl)c1Oc1ccc(F)cc1` (single isomer, unassigned) [Example 9c], in that order: 84% and 0.092 µM.
Taken in the same sequence, the figures for `CCOc1nc2ccc(C(O)(c3ccc(OC)nc3)c3cncn3C)cc2c(Cl)c1Oc1ccccc1` (single isomer, unassigned) [Example 10b] were 97% and 0.078 µM.
As for `CCOc1nc2ccc(C(O)(c3ccc(OC)nc3)c3cncn3C)cc2c(Cl)c1Oc1ccccc1` (single isomer, unassigned) [Example 10c], on human RORγt LBD, the “RORγt reporter Assay, % inhibition @ 6 μM” value is listed as 103%. Besides, the IC50 in test [1] stood at 0.095 µM.
As to `CCOc1nc2ccc(C(O)(c3ccc(C(F)(F)F)nc3)c3cncn3C)cc2c(C(F)(F)F)c1Oc1ccc(Cl)cc1` (single isomer, unassigned) [Example 25b, (3-(4-Chlorophenoxy)-2-ethoxy-4-(trifluoromethyl)quinolin-6-yl)(1-methyl-1H-imidazol-5-yl)(6-(trifluoromethyl)pyridin-3-yl)methanol], the “RORγt reporter Assay, % inhibition @ 6 μM” value at human RORγt LBD worked out at 92%. The IC50 in test [1] (Homo sapiens, CD4+ T, 72 h) was 0.44 µM.
As for `CCN(CC)c1nc2ccc(C(O)(c3ccc(C(F)(F)F)nc3)c3cncn3C)cc2c(C(F)(F)F)c1Oc1ccc(Cl)cc1` (single isomer, unassigned) [Example 27b, (3-(4-Chlorophenoxy)-2-(diethylamino)-4-(trifluoromethyl)quinolin-6-yl)(1-methyl-1H-imidazol-5-yl)(6-(trifluoromethyl)pyridin-3-yl)methanol], at human RORγt LBD, the inhibition at 6 µM was found to be 92%. In test [1], half-maximal inhibition (IC50) was put at 0.051 µM.
With `CCN(CC)c1nc2ccc(C(O)(c3ccc(C(F)(F)F)nc3)c3cncn3C)cc2c(C(F)(F)F)c1Oc1ccc(Cl)cc1` (single isomer, unassigned) [Example 27c, (3-(4-Chlorophenoxy)-2-(diethylamino)-4-(trifluoromethyl)quinolin-6-yl)(1-methyl-1H-imidazol-5-yl)(6-(trifluoromethyl)pyridin-3-yl)methanol], on human RORγt LBD, the “RORγt reporter Assay, % inhibition @ 6 μM” value was determined as 89%. The same compound displayed a half-inhibitory concentration (IC50) in test [1] of 0.49 µM.
As to `Cn1cncc1C(O)(c1ccc(C(F)(F)F)nc1)c1ccc2nc(N3CCC3)c(Oc3ccc(Cl)cc3)c(Cl)c2c1` (single isomer, unassigned) [Example 30b, (2-(Azetidin-1-yl)-4-chloro-3-(4-chlorophenoxy)quinolin-6-yl)(1-methyl-1H-imidazol-5-yl)(6-(trifluoromethyl)pyridin-3-yl)methanol], the inhibition at 6 µM on human RORγt LBD stood at 103%. The compound also gave a half-maximal inhibitory concentration (IC50) in test [1] of 0.064 µM.
Turning to `Cn1cncc1C(O)(c1ccc(C(F)(F)F)nc1)c1ccc2nc(N3CCC3)c(Oc3ccc(Cl)cc3)c(Cl)c2c1` (single isomer, unassigned) [Example 30c, (2-(Azetidin-1-yl)-4-chloro-3-(4-chlorophenoxy)quinolin-6-yl)(1-methyl-1H-imidazol-5-yl)(6-(trifluoromethyl)pyridin-3-yl)methanol], the “RORγt reporter Assay, % inhibition @ 6 μM” value at human RORγt LBD came to 97%. For the same compound, the midpoint of inhibition in test [1], the IC50, lay at 0.02 µM.
Take `Cn1cncc1C(O)(c1ccc(Cl)cc1)c1ccc2nc(N3CCC3)c(Oc3ccc(C#N)cc3)c(Cl)c2c1` (single isomer, unassigned) [Example 32b, 4-((2-(Azetidin-1-yl)-4-chloro-6-((4-chlorophenyl)(hydroxyl)(1-methyl-1H-imidazol-5-yl)methyl)quinolin-3-yl)oxy)benzonitrile]: the inhibition at 6 µM on human RORγt LBD was determined as 101%. Besides, in test [1] (Homo sapiens, CD4+ T, 72 h), the IC50 was 0.11 µM.
On to `Cn1cncc1C(O)(c1ccc(Cl)cc1)c1ccc2nc(N3CCC3)c(Oc3ccc(C#N)cc3)c(Cl)c2c1` (single isomer, unassigned) [Example 32c, 4-((2-(Azetidin-1-yl)-4-chloro-6-((4-chlorophenyl)(hydroxyl)(1-methyl-1H-imidazol-5-yl)methyl)quinolin-3-yl)oxy)benzonitrile], for which, on human RORγt LBD, the “RORγt reporter Assay, % inhibition @ 6 μM” value was found to be 101%. Besides, in test [1], the IC50 amounted to 0.056 µM.
Turning to `CCN(CC)c1nc2ccc(C(O)(c3ccc(OC)nc3)c3cncn3C)cc2c(Cl)c1Oc1ccccc1` (centres unmarked) [Example 5a, (4-Chloro-2-(diethylamino)-3-phenoxyquinolin-6-yl)(6-methoxypyridin-3-yl)(1-methyl-1H-imidazol-5-yl)methanol], the inhibition at 6 µM on human RORγt LBD amounted to 104%. In addition, it took 0.13 µM to reach half-maximal inhibition in test [1] (Homo sapiens, CD4+ T, 72 h) (IC50).
As to `CCN(CC)c1nc2ccc(C(O)(c3ccc(C(F)(F)F)nc3)c3cncn3C)cc2c(Cl)c1Oc1ccccc1` (centres unmarked) [Example 6a, (4-Chloro-2-(diethylamino)-3-phenoxyquinolin-6-yl)(1-methyl-1H-imidazol-5-yl)(6-(trifluoromethyl)pyridin-3-yl)methanol], the inhibition at 6 µM on human RORγt LBD amounted to 102%. In test [1] (Homo sapiens, CD4+ T, 72 h), this compound displayed a half-maximal inhibitory concentration (IC50) of 0.096 µM.
For `CCN(CC)c1nc2ccc(C(O)(c3cccnc3)c3cccc(Cl)c3)cc2c(Cl)c1Oc1ccccc1` (centres unmarked) [Example 7, (4-Chloro-2-(diethylamino)-3-phenoxyquinolin-6-yl)(3-chlorophenyl)(pyridin-3-yl)methanol], in that order: 91% and 0.11 µM.
For `CCN(CC)c1nc2ccc(C(O)(c3cncs3)c3cncn3C)cc2c(Cl)c1Oc1ccccc1` (centres unmarked) [Example 8, (4-Chloro-2-(diethylamino)-3-phenoxyquinolin-6-yl)(1-methyl-1H-imidazol-5-yl)(thiazol-5-yl)methanol.TFA], in that order: 95% and 0.048 µM.
For `COc1ccc(C(O)(c2ccc3nc(N(C)C)c(Oc4ccccc4)c(Cl)c3c2)c2cncn2C)cn1` (centres unmarked) [Example 17, (4-Chloro-2-(dimethylamino)-3-phenoxyquinolin-6-yl)(6-methoxypyridin-3-yl)(1-methyl-1H-imidazol-5-yl)methanol], in that order: 99% and 0.11 µM.
`Cn1cncc1C(O)(c1ccc(Cl)cc1)c1ccc2nc(C#N)c(Oc3ccccc3)c(Cl)c2c1` (centres unmarked) [Example 19, 4-Chloro-6-((4-chlorophenyl)(hydroxy)(1-methyl-1H-imidazol-5-yl)methyl)-3-phenoxyquinoline-2-carbonitrile.TFA]: the inhibition at 6 µM on human RORγt LBD stood at 85%. The same compound registered a 50% inhibitory concentration (IC50) in test [1] (Homo sapiens, CD4+ T, 72 h) of 0.17 µM.
